The compounds below were run on Trypanosoma cruzi (assay: Antitrypanosomal activity against Trypanosoma cruzi CL Brener epimastigotes at 25 uM). Settings: read-out: GI.
Assay type: functional

Structure (SMILES)	inhibition of growth at 25 µM
[O-][n+]1c2ccccc2[n+]([O-])c2cc(O)ccc21	14%

What follows are compounds tested on Trypanosoma cruzi (assay: Antitrypanosomal activity against Trypanosoma cruzi Tulahuen 2 epimastigotes at 25 uM). Settings: read-out: GI.
Assay type: functional

Structure (SMILES)	inhibition of growth at 25 µM
[O-][n+]1c2ccccc2[n+]([O-])c2cc(O)ccc21	0%
O=[N+]([O-])c1ccc(C2=[N+]([O-])c3ccccc3N3CCCN=C23)cc1	9%
O=[N+]([O-])c1ccccc1C1=[N+]([O-])c2ccccc2N2CCCN=C12	12%
COc1ccc(C2=[N+]([O-])c3ccccc3N3CCC[N+](C)=C23)cc1	9%
C[N+]1=C2C(c3ccc([N+](=O)[O-])cc3)=[N+]([O-])c3ccccc3N2CCC1	20%
c1ccc(C2=Nc3ccccc3N3CCCN=C23)cc1	29%
C[N+]1=C2C(c3ccccc3)=[N+]([O-])c3ccccc3N2CCC1	20%
[O-][N+]1=C(c2ccccc2)C2=NCCCN2c2ccccc21	36%
COc1ccc(C2=[N+]([O-])c3ccccc3N3CCCN=C23)cc1	36%
[O-][N+]1=C(c2ccc(Cl)cc2)C2=NCCCN2c2ccccc21	14%
[O-][N+]1=C(Cc2ccccc2)C2=NCCCN2c2ccccc21	13%
CC1=[N+]([O-])c2ccccc2N2CCCN=C12	22%
COc1ccc(C2=[N+]([O-])c3ccccc3N3CC(C)(C)CN=C23)cc1	13%
[O-][N+]1=C(c2ccccc2Cl)C2=NCCCN2c2ccccc21	14%

What follows are compounds tested on Trypanosoma cruzi (assay: Antitrypanosomal activity against Trypanosoma cruzi Y epimastigotes at 25 uM). Settings: read-out: GI.
Assay type: functional

Structure (SMILES)	inhibition of growth at 25 µM
[O-][n+]1c2ccccc2[n+]([O-])c2cc(O)ccc21	0%
